Experimental data: ChEMBL document CHEMBL6083286, “Discovery of ERD-12310A as an Exceptionally Potent and Orally Efficacious PROTAC Degrader of Estrogen Receptor α (ERα)” (J Med Chem, 2024)
pIC50: −log10 of the molar value. The source made the active and inactive calls. No cut-off for these calls is given here.

Columns and labels:
[1] = Drug concentration in SCID mouse tumor at 10 mg/kg, po administered daily for 3 days and measured after 6 hrs by LC-MS/MS analysis; format: ADME, organism-based, Neoplasm; conditions: time 3 day, read-out: Ct
T47D [2] = test: PROTAC activity at CRBN/ ERalpha Y537S mutant in human T47D cells assessed as reduction in ERalpha protein level at 10 to 100 nM measured at 7 hrs by Western blot analysis; format: cell-based; parameters: scale not given: the % may be the effect or the level left; conditions: dose 10-100 nM
[3] = target: T1, Protein cereblon/Estrogen receptor (Homo sapiens, UniProt P03372+Q96SW2); test: (§1) In-vivo PROTAC activity at CRBN/ERalpha in SCID mouse xenografted with human MCF7 cells assessed as reduction in ERalpha level in tumor at 30 mg/kg, po administered daily for 3 days and measured after 24 hrs by Western blot analysis; format: functional, organism-based; parameters: scale not given: the % may be the effect or the level left; conditions: time 96.0 hrs
MCF7 [4] = test: Antiproliferative activity against human MCF7 cells assessed as cell growth inhibition incubated for 4 days by crystal violet staining based assay; format: functional; conditions: time 4.0 day
[5] = Plasma protein binding in human; format: ADME, cell-free
[6] = Drug concentration in SCID mouse tumor at 30 mg/kg, po administered once daily for 3 days measured after 24 hrs by LC-MS/MS analysis; format: ADME, organism-based, Neoplasm; conditions: read-out: Ct
[7] = Plasma protein binding in mouse; format: ADME, cell-free
[8] = target: T1, Protein cereblon/Estrogen receptor; test: In-vivo PROTAC activity at CRBN/ERalpha in SCID mouse xenografted with human MCF7 cells assessed as reduction in ERalpha level in tumor at 10 mg/kg, po administered daily for 3 days and measured after 6 hrs by Western blot analysis; format: functional, organism-based; parameters: scale not given: the % may be the effect or the level left; conditions: time 78.0 hrs
[9] = Drug concentration in SCID mouse plasma at 30 mg/kg, po administered once daily for 3 days measured after 24 hrs by LC-MS/MS analysis; format: ADME, organism-based
[10] = target: T2, Voltage-gated inwardly rectifying potassium channel KCNH2 (Homo sapiens, UniProt Q12809); test: Inhibition of hERG in HEK293 cells at 10 uM by whole-cell patch clamp assay relative to control; format: toxicity, cell-based; conditions: hek293, 10 µM
[11] = tested on: Protein cereblon/Estrogen receptor (Homo sapiens), P03372+Q96SW2 [Y537S]; test: In vivo PROTAC activity at CRBN/ESR1 Y537S mutant in SCID mouse xenografted with human MCF7 cells assessed as reduction in ESR1 Y537S level in tumor at 10 mg/kg, po measured after 24 hrs by Western blot analysis; format: functional, organism-based; parameters: scale not given: the % may be the effect or the level left
[12] = Drug concentration in SCID mouse tumor at 10 mg/kg, po administered once daily for 3 days measured after 24 hrs by LC-MS/MS analysis; format: ADME, organism-based, Neoplasm
[13] = target: T1, Protein cereblon/Estrogen receptor; test: PROTAC activity at CRBN/ERalpha in human MCF7 cells assessed as reduction in ERalpha protein level measured after 12 hrs by Western blot analysis relative to control; format: cell-based
[14] = Stability in dog plasma assessed as half life; format: ADME, cell-free, Canis lupus familiaris
[15] = Plasma protein binding in rat; format: ADME, cell-free
[16] = Stability in human plasma assessed as half life; format: ADME, cell-free
[17] = target: T1, Protein cereblon/Estrogen receptor; test: PROTAC activity at CRBN/ERalpha in human MCF7 cells assessed as reduction in ERalpha protein level at 5 nM measured for 4 hrs in presence of PR-171 by Western blot analysis; format: cell-based
[18] = target: T2, Voltage-gated inwardly rectifying potassium channel KCNH2; test: Inhibition of hERG in HEK293 cells by whole-cell patch clamp assay; format: toxicity, cell-based
[19] = target: T1, Protein cereblon/Estrogen receptor; test: PROTAC activity at CRBN/ERalpha in human MCF7 cells assessed as reduction in ERalpha protein level at 1 nM measured at 4 hrs by Western blot analysis; format: cell-based
[20] = target: T1, Protein cereblon/Estrogen receptor; test: PROTAC activity at CRBN/wild type ERalpha in human T47D cells assessed as reduction in ERalpha protein level at 10 to 100 nM measured at 7 hrs by Western blot analysis; format: cell-based; conditions: dose 10-100 nM
MCF7 [21] = test: Antitumor activity against human MCF7 cells expressing ESR1 Y537S mutant xenografted in SCID mouse assessed as tumor growth inhibition at 10 mg/kg, po administered 5 days a week for 5 weeks; format: functional; conditions: MCF7, 840 h, read-out: TGI
[22] = Oral bioavailability in rat at 3 mg/kg measured upto 24 hrs by LC-MS/MS analysis; format: ADME, organism-based; conditions: in vivo
[23] = AUC (0 to infinity) in dog at 3 mg/kg, po or 1 mg/kg, iv measured upto 24 hrs by LC-MS/MS analysis; format: ADME, organism-based, Canis lupus familiaris; conditions: in vivo
T47D [24] = test: PROTAC activity at CRBN/ ERalpha D538G mutant in human T47D cells assessed as reduction in ERalpha protein level at 10 to 100 nM measured at 7 hrs by Western blot analysis; format: cell-based; parameters: scale not given: the % may be the effect or the level left; conditions: dose 10-100 nM
Cytochrome P450 2C19 = Cytochrome P450 2C19 (Homo sapiens, UniProt P33261); test: Inhibition of CYP2C19 in human liver microsomes incubated for 5 mins in presence of NADPH by LC-MS/MS analysis; format: ADME, Microsome
[25] = Metabolic stability mouse liver microsome assessed as half life; format: ADME; conditions: microsomes
[26] = target: T1, Protein cereblon/Estrogen receptor; test: as §1; format: functional, organism-based; parameters: scale not given: the % may be the effect or the level left; conditions: time 96.0 hrs; remark: listed apart in the source
[27] = Half life in dog at 3 mg/kg, po or 1 mg/kg, iv measured upto 24 hrs by LC-MS/MS analysis; format: ADME, organism-based, Canis lupus familiaris; conditions: in vivo
[28] = target: T1, Protein cereblon/Estrogen receptor; test: PROTAC activity at CRBN/ERalpha in human MCF7 cells assessed as reduction in ERalpha protein level at 5 nM measured for 4 hrs in presence of MLN-4924 by Western blot analysis; format: cell-based
[29] = Metabolic stability human liver microsome assessed as half life; format: ADME; conditions: microsomes
[30] = target: T1, Protein cereblon/Estrogen receptor; test: PROTAC activity at CRBN/ERalpha in human MCF7 cells assessed as reduction ER level at 100 nM measured for 5 hrs by Western blot analysis; format: cell-based
Cytochrome P450 3A4 = Cytochrome P450 3A4 (Homo sapiens, UniProt P08684); test: Inhibition of CYP3A4 in human liver microsomes using testosterone as substrate preincubated for 5 mins followed by NADPH addition and measured after 10 mins by LC-MS/MS analysis; format: ADME, Microsome
MCF7 [31] = test: Antitumor activity against human MCF7 cells expressing ESR1 Y537S mutant xenografted in SCID mouse assessed as tumor growth inhibition at 30 mg/kg, po administered 5 days a week for 7 weeks; format: functional; conditions: MCF7, 1176 h, read-out: TGI
[32] = Stability in mouse plasma assessed as half life; format: ADME, cell-free
[33] = target: T1, Protein cereblon/Estrogen receptor; test: PROTAC activity at CRBN/ERalpha in human MCF7 cells assessed as reduction in ERalpha protein level at 5 nM measured for 4 hrs by Western blot analysis; format: cell-based
[34] = Cmax in rat at 3 mg/kg, po or 1 mg/kg, iv measured upto 24 hrs by LC-MS/MS analysis; format: ADME, organism-based; conditions: in vivo

T1 sequence (P03372 whole entry, looked up): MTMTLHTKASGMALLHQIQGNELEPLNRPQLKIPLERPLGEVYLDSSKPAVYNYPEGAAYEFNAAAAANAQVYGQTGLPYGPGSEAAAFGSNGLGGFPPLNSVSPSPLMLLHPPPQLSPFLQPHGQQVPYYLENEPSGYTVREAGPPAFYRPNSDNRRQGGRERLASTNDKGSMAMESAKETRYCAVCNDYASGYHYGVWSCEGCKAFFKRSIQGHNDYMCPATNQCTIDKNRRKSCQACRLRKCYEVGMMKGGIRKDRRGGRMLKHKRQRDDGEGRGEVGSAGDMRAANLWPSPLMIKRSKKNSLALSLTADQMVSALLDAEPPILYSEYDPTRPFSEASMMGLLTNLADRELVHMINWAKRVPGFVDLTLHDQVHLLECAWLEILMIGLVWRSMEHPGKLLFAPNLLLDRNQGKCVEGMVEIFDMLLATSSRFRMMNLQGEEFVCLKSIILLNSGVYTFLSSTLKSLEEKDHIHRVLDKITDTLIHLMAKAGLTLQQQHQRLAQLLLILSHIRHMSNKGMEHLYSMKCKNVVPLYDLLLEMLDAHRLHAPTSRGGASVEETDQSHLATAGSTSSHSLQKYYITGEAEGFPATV
T1 sequence (Q96SW2 whole entry, looked up): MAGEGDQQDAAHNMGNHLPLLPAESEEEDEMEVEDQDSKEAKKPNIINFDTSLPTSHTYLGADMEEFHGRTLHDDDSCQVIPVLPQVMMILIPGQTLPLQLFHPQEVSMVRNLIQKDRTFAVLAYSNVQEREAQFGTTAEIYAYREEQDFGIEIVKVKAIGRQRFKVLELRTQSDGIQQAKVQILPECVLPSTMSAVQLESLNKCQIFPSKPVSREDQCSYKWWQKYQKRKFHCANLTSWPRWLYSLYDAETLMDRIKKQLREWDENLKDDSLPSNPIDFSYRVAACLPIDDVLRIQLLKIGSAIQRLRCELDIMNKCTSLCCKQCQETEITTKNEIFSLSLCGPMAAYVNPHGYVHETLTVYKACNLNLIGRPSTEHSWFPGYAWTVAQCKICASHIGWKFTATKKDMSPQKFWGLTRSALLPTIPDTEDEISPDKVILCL
T2 sequence (Q12809 whole entry): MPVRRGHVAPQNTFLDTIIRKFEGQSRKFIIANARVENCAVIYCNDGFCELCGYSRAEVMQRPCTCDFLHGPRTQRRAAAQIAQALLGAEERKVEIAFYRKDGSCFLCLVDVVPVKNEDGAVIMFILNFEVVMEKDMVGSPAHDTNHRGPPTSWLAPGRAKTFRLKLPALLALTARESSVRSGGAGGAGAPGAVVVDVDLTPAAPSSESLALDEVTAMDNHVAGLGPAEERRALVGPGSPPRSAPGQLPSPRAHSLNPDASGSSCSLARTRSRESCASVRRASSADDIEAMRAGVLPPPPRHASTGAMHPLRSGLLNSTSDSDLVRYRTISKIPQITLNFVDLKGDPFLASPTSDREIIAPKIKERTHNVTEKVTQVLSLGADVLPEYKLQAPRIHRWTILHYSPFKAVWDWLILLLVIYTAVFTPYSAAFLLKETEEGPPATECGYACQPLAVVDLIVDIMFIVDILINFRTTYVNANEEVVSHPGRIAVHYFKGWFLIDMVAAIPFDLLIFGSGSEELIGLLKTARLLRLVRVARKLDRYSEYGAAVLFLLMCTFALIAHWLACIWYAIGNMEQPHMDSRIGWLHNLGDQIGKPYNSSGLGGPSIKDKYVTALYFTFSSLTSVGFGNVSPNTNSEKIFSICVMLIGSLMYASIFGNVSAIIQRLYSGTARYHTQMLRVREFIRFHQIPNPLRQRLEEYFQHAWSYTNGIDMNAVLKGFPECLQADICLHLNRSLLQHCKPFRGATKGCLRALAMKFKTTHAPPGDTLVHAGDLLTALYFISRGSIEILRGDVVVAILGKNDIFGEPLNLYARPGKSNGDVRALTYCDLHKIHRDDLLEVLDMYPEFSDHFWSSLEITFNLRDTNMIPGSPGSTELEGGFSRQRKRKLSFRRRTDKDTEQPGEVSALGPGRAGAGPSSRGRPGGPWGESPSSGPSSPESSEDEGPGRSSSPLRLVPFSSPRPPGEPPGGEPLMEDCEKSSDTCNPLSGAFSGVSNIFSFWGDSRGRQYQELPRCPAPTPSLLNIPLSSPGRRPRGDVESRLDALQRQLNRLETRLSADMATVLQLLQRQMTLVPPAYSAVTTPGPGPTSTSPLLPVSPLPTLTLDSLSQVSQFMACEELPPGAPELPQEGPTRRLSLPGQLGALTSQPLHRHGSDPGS
Cytochrome P450 3A4, sequence (P08684 whole entry): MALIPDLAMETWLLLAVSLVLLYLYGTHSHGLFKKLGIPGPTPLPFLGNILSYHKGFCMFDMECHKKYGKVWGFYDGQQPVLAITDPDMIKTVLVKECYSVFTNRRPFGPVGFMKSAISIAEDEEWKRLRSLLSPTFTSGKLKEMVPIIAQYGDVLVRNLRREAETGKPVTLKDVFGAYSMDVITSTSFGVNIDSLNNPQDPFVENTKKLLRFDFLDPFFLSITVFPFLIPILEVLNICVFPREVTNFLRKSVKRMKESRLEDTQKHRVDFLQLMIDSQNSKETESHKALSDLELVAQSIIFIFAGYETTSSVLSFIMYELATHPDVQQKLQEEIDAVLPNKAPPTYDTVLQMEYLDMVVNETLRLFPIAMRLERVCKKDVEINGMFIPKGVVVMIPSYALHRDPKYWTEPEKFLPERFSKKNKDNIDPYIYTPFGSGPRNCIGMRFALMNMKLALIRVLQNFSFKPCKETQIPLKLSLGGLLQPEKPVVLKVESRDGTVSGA
Cytochrome P450 2C19, sequence (P33261 whole entry): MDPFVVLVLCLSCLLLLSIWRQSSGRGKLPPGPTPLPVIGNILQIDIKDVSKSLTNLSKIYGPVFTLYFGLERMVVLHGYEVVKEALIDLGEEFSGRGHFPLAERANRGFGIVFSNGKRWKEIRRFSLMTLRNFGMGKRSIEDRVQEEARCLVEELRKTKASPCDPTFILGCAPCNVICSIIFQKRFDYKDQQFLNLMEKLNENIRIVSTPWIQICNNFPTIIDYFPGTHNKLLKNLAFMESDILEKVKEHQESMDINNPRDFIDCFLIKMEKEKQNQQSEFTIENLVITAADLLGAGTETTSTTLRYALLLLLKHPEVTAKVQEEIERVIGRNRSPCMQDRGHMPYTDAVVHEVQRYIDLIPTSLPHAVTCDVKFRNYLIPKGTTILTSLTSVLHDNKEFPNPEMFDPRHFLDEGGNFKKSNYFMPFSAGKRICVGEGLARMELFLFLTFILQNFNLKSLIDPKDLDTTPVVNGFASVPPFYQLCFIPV

**Q.** With `O=C1CC[C@H](N2Cc3c(ccc4c3OCC43CCN(C[C@@H]4CCC5(CCN(c6ccc([C@@H]7c8ccc(O)cc8CC[C@@H]7c7ccccc7)cc6)CC5)OC4)CC3)C2=O)C(=O)N1` as the molecule, how does the concentration at 72 h [1] read?
**A.** Its concentration at 72 h is 975 ng/mL.

**Q.** And the Activity (T47D [2])?
**A.** The Activity was > 80%.

**Q.** And the Activity [3]?
**A.** Its Activity is 29%.

**Q.** And the Activity (MCF7 [4])?
**A.** Its Activity is “Active”.

**Q.** And the PPB [5]?
**A.** The PPB was 98.9%.

**Q.** What about the concentration at 96 h [6] of the same molecule?
**A.** Its concentration at 96 h is 1030 ng/mL.

**Q.** What about the PPB [7] of the same molecule?
**A.** Its PPB is 99%.

**Q.** And the Activity [8]?
**A.** Its Activity is 66%.

**Q.** What about the concentration at 96 h [9] of the same molecule?
**A.** The concentration at 96 h was 72 ng/mL.

**Q.** And the “inhibition (INH)” value [10]?
**A.** Its value is 43.7%.

**Q.** And the Activity [11]?
**A.** Its Activity is 71%.

**Q.** And the concentration at 96 h [12]?
**A.** Its concentration at 96 h is 294 ng/mL.

**Q.** And the Emax [13]?
**A.** The Emax was 103%.

**Q.** And the t1/2 [14]?
**A.** Its t1/2 is > 4 h.

**Q.** And the PPB [15]?
**A.** The PPB was 95.7%.

**Q.** What about the t1/2 [16] of the same molecule?
**A.** The t1/2 was > 4 h.

**Q.** What about the Activity [17] of the same molecule?
**A.** Its Activity is “inactive”.

**Q.** What about the pIC50 [18] of the same molecule?
**A.** The pIC50 was < 5.00.

**Q.** And the Activity [19]?
**A.** Its Activity is “Active”.

**Q.** And the Activity [20]?
**A.** Its Activity is “Active”.

**Q.** And the inhibition in vivo at 10 mg/kg (MCF7 [21])?
**A.** Its inhibition in vivo at 10 mg/kg is 75%.

**Q.** And the F [22]?
**A.** Its F is 10%.

**Q.** What about the AUC(0-inf) [23] of the same molecule?
**A.** The AUC(0-inf) was 15500 ng·h/mL.

**Q.** What about the Activity (T47D [24]) of the same molecule?
**A.** The Activity was > 80%.

**Q.** And the pIC50 (Cytochrome P450 2C19)?
**A.** The pIC50 was 5.22.

**Q.** What about the t1/2 [25] of the same molecule?
**A.** The t1/2 was > 1 h.

**Q.** What about the Activity [26] of the same molecule?
**A.** Its Activity is 71%.

**Q.** And the t1/2 [27]?
**A.** Its t1/2 is 23.2 h.

**Q.** And the Activity [28]?
**A.** Its Activity is “inactive”.

**Q.** And the t1/2 [29]?
**A.** The t1/2 was > 1 h.

**Q.** And the Activity [30]?
**A.** Its Activity is “No effect”.

**Q.** What about the pIC50 (Cytochrome P450 3A4) of the same molecule?
**A.** The pIC50 was < 5.00.

**Q.** And the inhibition in vivo at 30 mg/kg (MCF7 [31])?
**A.** The inhibition in vivo at 30 mg/kg was 100%.

**Q.** And the t1/2 [32]?
**A.** The t1/2 was > 4 h.

**Q.** And the Activity [33]?
**A.** Its Activity is “Active”.

**Q.** And the Cmax [34]?
**A.** The Cmax was 57.7 ng/mL.
